“Also recorded” adds a separate entry of the source. Like-named read-outs stand apart in the source and are kept apart here.
Key:
MDA-MB-231 cells = experiment: Boyden chamber invasion assay, MDA-MB-231; assay type: cell-based, human; conditions: for effect on invasion upon transient expression of pre-miR-21: MDA-MB-231 + pre-miR-21; for effect on invasion: MDA-MB-231, LNA-21 100 nM, 2 1000 nM
Experimental: (§1) Boyden Chamber Invasion Assay. The MDA-MB-231, MDA-LM2, A375, A549, or MCF-10a cells (5×10^4) were seeded into Hanging Cell Culture Inserts for 24 well plates with uncoated membranes with 8.0 μm pores (Millicell) in serum free growth media. A 3 mg/mL layer (100 μL) of Matrigel (Fisher Scientific: CB40234) diluted with serum free growth media was prepared inside of each membrane. Cells were cultured as described above, with or without compound treatment, and allowed to invade towards complete growth media in the bottom well for 16-24 h before ending the experiment by removing the media in the bottom wells and inserts. The hanging cell culture inserts and bottom wells were washed twice with 1×PBS, gently shaking to mix. Excess liquid and cells inside the insert were removed with cotton swabs, after which 400 μL of 4% paraformaldehyde was placed into the bottom well and incubated for 20 min at room temperature to fix the cells. The wells and inserts were washed twice with 1×PBS and then treated with 400 μL of 0.1% crystal violet solution for 20 min at room temperature to stain the cells. The wells and inserts were washed twice with water, followed by one wash with 1×PBS. Inserts were dried with cotton swabs to remove extra stain and cells inside the insert, then were air-dried, followed by Brightfield microscopic analysis using a Leica DMI3000 B upright fluorescent microscope. Four different fields of view from each captured image were counted for crystal violet stained or unstained cells. Normalized cells invaded was calculated with equation 5 (Eq 5): […]
(§2) where stained cells represent cells counted with crystal violet stain observed in the compound treated or vehicle treated samples, respectively.

pre-miR-21 = experiment: RT-qPCR of mature miR-21 and pre-miR-21 levels in MDA-MB-231 cells; assay type: cell-based, human; conditions: for effect on pre-miR-21 upon siRNA ablation of RNase L: 5 at 50 nM; for period over which significantly decreased miR-21 levels were observed after a single dose: Formula 2 1000 nM, Formula 5 50 nM; for effect on mature miR-21 levels / effect on pre-miR-21 levels: MDA-MB-231, RT-qPCR
Experimental: Cell culture compound treatment and transfection. For treatment with compounds, stocks in DMSO or water were diluted in growth media and added to cells for 24-72 h. For transfection of plasmid DNA to overexpress the miR-21 hairpin precursor in pcDNA3.1 (Addgene 21114) or pcDNA3-RNaseL (R. H. Silverman, Cleveland Clinic^24) in 24-well plates, Lipofectamine 2000 was used according to the manufacturer's protocol. After transfection, the medium was removed and replaced with growth medium containing compound prepared as described above. For transfection of a control (Santa Cruz Biotechnology: sc-37007) or RNase L targeting siRNA (Santa Cruz Biotechnology: sc-45965), Lipofectamine RNAiMAX Reagent was used for transfection of oligonucleotides, including 2′-5′ A4, according to the manufacturer's protocol.

A375 cells = experiment: Boyden chamber invasion assay, A375; assay type: cell-based; conditions: LNA-21 100 nM, 2 1000 nM
Experimental: as §1, with “The wells and inserts were washed twice with 1×PBS and then treated with 400 μL of 0.1% crystal violet solution for 20 min at room temperature to stain the cells. The wells and inserts were washed twice with water, followed by one wash with 1×PBS. Inserts were dried with cotton swabs to remove extra stain and cells inside the insert, then were air-dried, followed by Brightfield microscopic analysis using a Leica DMI3000 B upright fluorescent microscope.” left out
as §2

PDCD4 = PDCD4 Western blot in MDA-MB-231 cells; assay type: cell-based, human; conditions: for effect on PDCD4 protein levels: Western blotting relative to β-actin
Experimental: PDCD4 Western blot: The MDA-MB-231 cells were grown to ˜60% confluency in 6-well plates. Cells were incubated with compounds diluted in growth media for 48 h. Total protein was extracted using M-PER Mammalian Protein Extraction Reagent (Pierce Biotechnology) supplemented with 1×Protease Inhibitor Cocktail III for Mammalian Cells (Research Products International Corp.) per the manufacturer's protocol. Total protein lysate was quantified using a Micro BCA Protein Assay Kit (Pierce Biotechnology). A 30 μg aliquot of total protein was resolved on a 10% Bis-Tris SDS-polyacrylamide gel, with a 5% stacking layer, and then transferred to a PVDF membrane. The membrane was then blocked in 5% (w/v) nonfat dry milk in 1×TBST for 1 h at room temperature. The membrane was then incubated with 1:2000 rabbit mAb PDCD4 primary antibody (Cell Signaling Technology: D29C6) in 1×TBST containing 5% nonfat dry milk overnight at 4° C. The membrane was washed five times for 5 min each with 1×TBST and then incubated with 1:5000 anti-rabbit IgG horseradish peroxidase secondary antibody conjugate (Cell Signaling Technology: 7074S) in 1×TBST containing 5% nonfat dry milk for 1 h at room temperature. After washing seven times for 5 min each with 1×TBST, protein levels were quantified by chemiluminescence using a SuperSignal West Pico Chemiluminescent Substrate (Pierce Biotechnology) per the manufacturer's recommendations. The membrane was stripped with 1×Stripping Buffer (200 mM glycine, pH 2.2, 1% Tween-20 and 0.1% SDS) two times for 5 min each, followed by washing 3 times in 1×TBST. Then, the membrane was blocked and probed for β-actin following the same procedure described above using 1:5000 mouse β-actin primary antibody (Cell Signaling Technology: 8H10D10). The membrane was washed five times with 1×TBST and incubated with 1:10000 anti-mouse IgG horseradish-peroxidase secondary antibody conjugate (Cell Signaling Technology: 7076S). After washing seven times with 1×TBST for 5 min each, protein levels were quantified as described above. ImageJ software was used to quantify band intensities.

[1] = tested on: miR-21 in various cancer cell lines; experiment: RT-qPCR of mature miR-21 in various cancer cell lines; assay type: cell-based
[2] = DMPK: plasma levels in C57BL/6 mice; assay type: in vivo, mouse; conditions: i.p., 10 mg/kg
Experimental: DMPK Measurements: Male C57BL/6 mice (n=3, 5-7 weeks) were used for pharmacokinetics (PK) assessment. Mice were dosed i.p. (10 mg/kg) with 5 in a formulation of DMSO/Tween-80/H2O (10/10/80) and blood (25 μL) was drawn at 0.25, 0.5, 1, 2, 4, 6, 8, and 24 h time points. Detection of compound levels in blood plasma was determined using LC/MS-MS on a QTRAP 5500 LC-MS/MS System (AB Sciex).

A549 cells = experiment: Boyden chamber invasion assay, A549; assay type: cell-based; conditions: LNA-21 100 nM, 2 1000 nM
Experimental: as §1, with “The wells and inserts were washed twice with 1×PBS and then treated with 400 μL of 0.1% crystal violet solution for 20 min at room temperature to stain the cells. The wells and inserts were washed twice with water, followed by one wash with 1×PBS. Inserts were dried with cotton swabs to remove extra stain and cells inside the insert, then were air-dried, followed by Brightfield microscopic analysis using a Leica DMI3000 B upright fluorescent microscope.” left out
as §2

SMILES: CCCN(CC(=O)N(CCC)CC(=O)N(CCC)CC(=O)N(CC(=O)NCCOCCOCCOCCOc1ccc(C=C2SC(Nc3ccccc3)=C(C(=O)OCC)C2=O)cc1O)Cc1cn(CCCNC(=O)CCCOc2ccc(-c3nc4cc(-c5ccc(N6CCN(C)CC6)cc5)ccc4[nH]3)cc2)nn1)C(=O)CN(Cc1cn(CCCNC(=O)CCCOc2ccc(-c3nc4cc(-c5ccc(N6CCN(C)CC6)cc5)ccc4[nH]3)cc2)nn1)C(C)=O [Compound 5]
- effect on invasion upon transient expression of pre-miR-21 (MDA-MB-231 cells): ablated
- effect on invasion upon transient expression of pre-miR-21 (MDA-MB-231 cells; listed as Formula 5): ablated the inhibitory effect
- effect on invasion (MDA-MB-231 cells): significant decrease of invasion
- effect on invasion (MDA-MB-231 cells; listed as Formula 5): effectively inhibited invasion
- effect on pre-miR-21 upon siRNA ablation of RNase L (pre-miR-21; MDA-MB-231): diminished effects
- effect on pre-miR-21 upon siRNA ablation of RNase L (pre-miR-21; MDA-MB-231, listed as Formula 5): decreased the ability of Formula 5 to cleave pre-miR-21
- period over which significantly decreased miR-21 levels were observed after a single dose (pre-miR-21; MDA-MB-231): 96 h
- enhanced activity for affecting miR-21 levels over parent 2 (pre-miR-21; MDA-MB-231): 20 fold
- potency of enzymatic cleavage versus bleomycin conjugate of 2 (pre-miR-21; MDA-MB-231): 10 fold
- effect on mature miR-21 levels (pre-miR-21): decreased miR-21 levels
- effect on pre-miR-21 levels (pre-miR-21): decreased pre-miR-21
- effect on pre-miR-21 levels (pre-miR-21; listed as Formula 5): diminished
- IC50 (pre-miR-21; MDA-MB-231, read-out: IC50, affecting miR-21 levels): ~50 nM
- effect on invasion (A375 cells; listed as Formula 5): decreased invasiveness
- effect on PDCD4 protein levels (PDCD4): de-repress levels of PDCD4 protein
- effect on mature miR-21 levels [1]: decreased mature miR-21 levels
- effect on mature miR-21 levels ([1]; listed as Formula 5): significantly inhibited miR-21 levels
- concentrations maintained in mice (plasma) [2]: low nanomolar concentrations
- effect on invasion (A549 cells; listed as Formula 5): decreased invasiveness

SMILES: CCCN(CC(=O)N(CCC)CC(=O)N(CCC)CC(=O)N(CC(N)=O)Cc1cn(CCCNC(=O)CCCOc2ccc(-c3nc4cc(-c5ccc(N6CCN(C)CC6)cc5)ccc4[nH]3)cc2)nn1)C(=O)CNCc1cn(CCCNC(=O)CCCOc2ccc(-c3nc4cc(-c5ccc(N6CCN(C)CC6)cc5)ccc4[nH]3)cc2)nn1 [Compound 2]
- effect on invasion (MDA-MB-231 cells): decreased the invasive phenotype
- effect on invasion (MDA-MB-231 cells; listed as Formula 2): inhibited the invasive properties of MDA-MB-231
- period over which significantly decreased miR-21 levels were observed after a single dose (pre-miR-21; MDA-MB-231): 48 h
- effect on mature miR-21 levels (pre-miR-21): decreased miR-21 levels; also recorded: decreases mature miR-21 levels
- effect on pre-miR-21 levels (pre-miR-21): increased pre-miR-21 levels; also recorded: boosted levels of pre-miR 21
- IC50 (pre-miR-21; MDA-MB-231, read-out: IC50, affecting pre-miR-21 in cells): 1000 nM
- effect on invasion (A375 cells): decreased the invasive phenotype
- increase of PDCD4 levels (PDCD4; 1 μM, MDA-MB-231): ~50%
- effect on PDCD4 protein levels (PDCD4): de-repress levels of PDCD4 protein
- effect on mature miR-21 levels [1]: silenced miR-21
- effect on invasion (A549 cells): decreased the invasive phenotype

Reference: patent publication US12617757B2, “Compounds and modules for inhibition of pre-miR-21 and their use in treatment of certain cancers” (University of Florida Research Foundation, Incorporated, priority 2019, dated 2026)
